Activity calls are given as the source filed them. The rule behind the calls is not given here.
How the values were obtained:
[1] = Cytotoxicity against rat PC12 cells assessed as cell viability at 10 and 20 uM after 72 hrs by SRB assay; format: cell-based; conditions: pc-12, 72 h
PC-12 [2] = assay: Effect on neurite outgrowth in rat PC12 cells at 10 and 20 uM after 48 hrs by inverted microscopic analysis; format: functional, cell-based
PC-12 [3] = assay: Stimulation of NGF-mediated neurite outgrowth in rat PC12 cells at 10 and 20 uM after 48 hrs by inverted microscopic analysis; format: functional, cell-based
PC-12 [4] = assay: Stimulation of NGF-mediated neurite outgrowth in rat PC12 cells at 20 uM after 48 hrs by inverted microscopic analysis (reference value: 15.32 +/- 0.25%); format: functional

| SMILES | Activity [1] | Activity (PC-12 [2]) | Activity (PC-12 [3]) | Activity (PC-12 [4]) |
| --- | --- | --- | --- | --- |
| CC(C)[C@@H](C)/C=C/[C@@H](C)[C@H]1CC[C@H]2C3=CC(=O)[C@@]4(O)C[C@@H](O)CC[C@]4(C)[C@@]3(O)CC[C@]12C | Non-toxic | inactive | Active | – |
| CC(C)[C@@H](C)/C=C/[C@@H](C)[C@H]1CC[C@@H]2[C@]1(C)CC[C@H]1[C@]23C=C[C@]2(C[C@@H](O)CC[C@]12C)OO3 [ERGOSTEROL PEROXIDE] | Non-toxic | inactive | Active | – |
| CC1(C)CC[C@]2(C(=O)O)CC[C@]3(C)C(=CC[C@@H]4[C@@]5(C)CC[C@H](O)C(C)(C)[C@@H]5CC[C@]43C)[C@@H]2C1 [OLEANOLIC_ACID] | Non-toxic | inactive | – | – |
| COc1cc2c(c3c1CCC(C)(CC(=O)C=C(C)C)O3)C(=O)OC2 (racemic) | Non-toxic | inactive | Active | 19.96% |
| CCCCCCCCCCCCCCCCCCCC(O)C(=O)N[C@@H](CO)C(O)[C@H](O)CCCCCCCCCCCCCCCCC (stereo partly drawn) | Non-toxic | inactive | – | – |
| C[C@H]1[C@H](C)CC[C@]2(C(=O)O)CC[C@]3(C)C(=CC[C@@H]4[C@@]5(C)CC[C@H](O)C(C)(C)[C@@H]5CC[C@]43C)[C@H]12 [URSOLIC ACID] | Non-toxic | inactive | – | – |
| C[C@H](CC[C@H](O)C(C)(C)O)[C@H]1CC[C@@]2(C)C3=C(CC[C@]12C)[C@@]1(C)CC[C@H](O)C(C)(C)C1CC3 (stereo partly drawn) | Non-toxic | inactive | – | – |
| CC(C)[C@@H](C)/C=C/[C@@H](C)[C@H]1CC[C@H]2C3=C[C@@H](O)[C@@]4(O)C[C@@H](O)CC[C@]4(C)[C@H]3CC[C@]12C [CEREVISTEROL] | Non-toxic | inactive | Active | – |
| COc1cc2c(c3c1CC[C@@](C)(CC(=O)C=C(C)C)O3)C(=O)OC2 | Non-toxic | inactive | Active | 17.85% |
| C=C(C)[C@@H]1CC[C@]2(CO)CC[C@]3(C)[C@H](CC[C@@H]4[C@@]5(C)CC[C@H](O)C(C)(C)[C@@H]5CC[C@]43C)[C@@H]12 [BETULIN] | Non-toxic | inactive | – | – |
| C/C(=C\CC(O)[C@@H](C)[C@H]1CC[C@@]2(C)C3=C(CC[C@]12C)[C@@]1(C)CC[C@H](O)C(C)(C)C1CC3)C(=O)O (stereo partly drawn) | Non-toxic | inactive | – | – |
| COc1cc2c(c3c1CC[C@](C)(CC(=O)C=C(C)C)O3)C(=O)OC2 | Non-toxic | inactive | Active | 21.79% |

From ChEMBL document CHEMBL3632569, “Chemical constituents from Hericium erinaceus and their ability to stimulate NGF-mediated neurite outgrowth on PC12 cells” (Bioorg Med Chem Lett, 2015)
